Assay results from US8648092B2, “Imidazo[1,2-a]pyridine derivatives: preparation and pharmaceutical applications” (MEI Pharma, priority 2005, dated 2014).
Blank lines part the entries; values can stand above or below the compound they belong to.

Legend:
[1] = tested on: Colo205 cells; test: Cell-based proliferation assay for determination of GI50 values (CyQUANT); design: species or system human
Method in brief: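 Colo205 cells in RPMI 1640 with 5% FBS, seeded 5000/well and grown 24 h at 37 °C. Exposure to compound lasted 96 h, with growth read by CyQUANT. GI50 = concentration giving 50% growth inhibition, from dose-response curves.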

[2] = molecular target: HDAC1 enzyme (recombinant GST-HDAC1) (Homo sapiens (Human), UniProt Q13547); test: In vitro HDAC assay for determination of IC50 values (BIOMOL fluorescent-based HDAC activity assay); type: biochemical; conditions: Flur de lys substrate, 2 h room temperature, read-out: IC50 (HDAC 1)
Method in brief: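 Recombinant human GST-HDAC1, baculovirus-expressed in SF9 cells and glutathione-purified, tested with a fluorogenic deacetylase substrate; Fluor de Lys developer added for 10 min. Fluorescence at 360 nm excitation/460 nm emission; IC50 fitted from a concentration series.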

[3] = Homo sapiens, COLO 205, 96 h treatment
[4] = Homo sapiens, COLO 205, 96 h, 96 h treatment

Sequence of HDAC1 enzyme (recombinant GST-HDAC1) (Q13547 whole entry): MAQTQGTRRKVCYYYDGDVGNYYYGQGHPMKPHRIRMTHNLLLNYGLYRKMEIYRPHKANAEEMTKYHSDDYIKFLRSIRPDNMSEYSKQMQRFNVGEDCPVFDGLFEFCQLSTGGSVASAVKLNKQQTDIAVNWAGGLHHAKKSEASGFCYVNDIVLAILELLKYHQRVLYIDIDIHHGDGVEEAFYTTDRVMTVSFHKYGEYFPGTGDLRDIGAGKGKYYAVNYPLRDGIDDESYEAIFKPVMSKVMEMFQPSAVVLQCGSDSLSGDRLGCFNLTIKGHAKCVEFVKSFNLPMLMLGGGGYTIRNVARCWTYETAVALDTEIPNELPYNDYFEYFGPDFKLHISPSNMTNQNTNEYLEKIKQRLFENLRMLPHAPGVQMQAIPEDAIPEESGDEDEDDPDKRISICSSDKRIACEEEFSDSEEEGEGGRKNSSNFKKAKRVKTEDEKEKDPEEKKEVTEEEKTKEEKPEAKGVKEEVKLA

Structure (SMILES): CCNCc1c(C(C)(C)C)nc2cc(/C=C/C(=O)NO)ccn12 [Compound 84, 3-(2-tert-Butyl-3-ethylaminomethyl-imidazo[1,2-a]pyridin-7-yl)-N-hydroxy-acrylamide]
GI50 [1, 3]: 470 nM
IC50 [2]: 60 nM

Structure (SMILES): CCN(Cc1c(C(C)(C)C)nc2cc(/C=C/C(=O)NO)ccn12)CC1CCCCC1 [Compound 98, 3-{2-tert-Butyl-3-[(cyclohexylmethyl-ethyl-amino)-methyl]-imidazo[1,2-a]pyridin-7-yl}-N-hydroxy-acrylamide]
GI50 [1, 4]: 1100 nM
IC50 [2]: 190 nM

Structure (SMILES): CCCCN(CC)Cc1c(C)nc2cc(/C=C/C(=O)NO)ccn12 [Compound 99, 3-{3-[(Butyl-ethyl-amino)-methyl]-2-methyl-imidazo[1,2-a]pyridin-7-yl}-N-hydroxy-acrylamide]
GI50 [1, 3]: 180 nM
IC50 [2]: 30 nM

Structure (SMILES): CCC(CC)CN(CC)Cc1c(C)nc2cc(/C=C/C(=O)NO)ccn12 [Compound 101, 3-(3-{[Ethyl-(2-ethyl-butyl)-amino]-methyl}-2-methyl-imidazo[1,2-a]pyridin-7-yl)-N-hydroxy-acrylamide]
GI50 [1, 3]: 50 nM
IC50 [2]: 10 nM

Structure (SMILES): CCN(CC)Cc1c(-c2ccccc2)nc2ccc(/C=C/C(=O)NO)cn12 [Compound 103, 3-(3-Diethylaminomethyl-2-phenyl-imidazo[1,2a]pyridin-6-yl)-N-hydroxy-acrylamide]
GI50 [1, 3]: 41000 nM
IC50 [2]: > 10000 nM

Structure (SMILES): CN(Cc1c(C(C)(C)C)nc2cc(C=CC(=O)NO)ccn12)CC(C)(C)C [Compound 104, 3-(2-tert-Butyl-3-{[(2,2-dimethyl-propyl)-methyl-amino]-methyl}-imidazo[1,2-a]pyridin-7-yl)-N-hydroxy-acrylamide]
GI50 [1, 3]: 6300 nM
IC50 [2]: 780 nM

Structure (SMILES): CCN(Cc1c(-c2ccccc2)nc2cc(/C=C/C(=O)NO)ccn12)CC(F)(F)F [Compound 105, 3-(3-{[Ethyl-(2,2,2-trifluoro-ethyl)-amino]-methyl}-2-phenyl-imidazo [1,2-a]pyridin-7-yl)-N-hydroxy-acrylamide]
GI50 [1, 3]: 44000 nM
IC50 [2]: 7400 nM

Structure (SMILES): CCCN(Cc1c(C)nc2cc(C=CC(=O)NO)ccn12)CC(C)(C)C [Compound 110, 3-(3-{[(2,2-Dimethyl-propyl)-propyl-amino]-methyl}-2-methyl-imidazo[1,2a]pyridin-7-yl)-N-hydroxy-acrylamide]
GI50 ([1]; 96 h treatment): 700 nM
IC50 [2]: 130 nM

Structure (SMILES): CCN(Cc1c(C)nc2cc(C=CC(=O)NO)ccn12)CC(C)(C)C [Compound 111, 3-(3-{[(2,2-Dimethyl-propyl)-ethyl-amino]-methyl}-2-methyl-imidazo[1,2a]pyridin-7-yl)-N-hydroxy-acrylamide]
GI50 ([1]; 96 h treatment): 600 nM
IC50 [2]: 50 nM

Structure (SMILES): CCCCc1nc2cc(/C=C/C(=O)NO)ccn2c1CN(CC)CC(C)C [Compound 112, 3-{2-Butyl-3-[(ethyl-isobutyl-amino)-methyl]-imidazo[1,2-a]pyridin-7-yl}-N-hydroxy-acrylamide]
GI50 [1, 3]: 570 nM
IC50 [2]: 90 nM

Structure (SMILES): CCCCc1nc2cc(/C=C/C(=O)NO)ccn2c1CN(CC)CC(C)(C)C [Compound 115, 3-(2-Butyl-3-{[(2,2-dimethyl-propyl)-ethyl-amino]-methyl}-imidazo[1,2-a]pyridin-7-yl)-N-hydroxy-acrylamide]
GI50 [1, 3]: 950 nM
IC50 [2]: 160 nM

Structure (SMILES): CCCCc1nc2cc(/C=C/C(=O)NO)ccn2c1CN(CC)CC(C)CCC (stereo not shown) [Compound 116, 3-(2-Butyl-3-{[ethyl-(2-methyl-pentyl)-amino]-methyl}-imidazo[1,2-a]pyridin-7-yl)-N-hydroxy-acrylamide]
GI50 ([1]; 96 h treatment): 490 nM
IC50 [2]: 80 nM

Structure (SMILES): CCCCc1nc2cc(/C=C/C(=O)NO)ccn2c1CN(CC)CCC(C)(C)C [Compound 117, 3-(2-Butyl-3-{[(3,3-dimethyl-butyl)-ethyl-amino]-methyl}-imidazo[1,2-a]pyridin-7-yl)-N-hydroxy-acrylamide]
GI50 [1, 3]: 140 nM
IC50 [2]: 30 nM

Structure (SMILES): CCCCc1nc2cc(/C=C/C(=O)NO)ccn2c1CN(CC)CC(CC)CC [Compound 118, 3-(2-Butyl-3-{[ethyl-(2-ethyl-butyl)-amino]-methyl}-imidazo[1,2-a]pyridin-7-yl)-N-hydroxy-acrylamide]
GI50 [1, 3]: 390 nM
IC50 [2]: 150 nM

Other lines, results leading:

GI50 [1, 3]: 680 nM
IC50 [2]: 60 nM
Structure (SMILES): CCCCN(CC)Cc1c(C(C)(C)C)nc2cc(/C=C/C(=O)NO)ccn12 [Compound 85, 3-{2-tert-Butyl-3-[(butyl-ethyl-amino)-methyl]-imidazo[1,2-a]pyridin-7-yl}-N-hydroxy-acrylamide]

GI50 [1, 3]: 3900 nM
IC50 [2]: 570 nM
Structure (SMILES): CCN(Cc1c(C(C)(C)C)nc2cc(/C=C/C(=O)NO)ccn12)CC(C)C [Compound 86, 3-{2-tert-Butyl-3-[(ethyl-isobutyl-amino)-methyl]-imidazo[1,2-a]pyridin-7-yl}-N-hydroxy-acrylamide]

GI50 [1, 3]: 750 nM
IC50 [2]: 130 nM
Structure (SMILES): CCCCCN(CC)Cc1c(C(C)(C)C)nc2cc(/C=C/C(=O)NO)ccn12 [Compound 87, 3-{2-tert-Butyl-3-[(ethyl-pentyl-amino)-methyl]-imidazo[1,2-a]pyridin-7-yl}-N-hydroxy-acrylamide]

GI50 [1, 4]: 350 nM
IC50 [2]: 60 nM
Structure (SMILES): CCN(CCC(C)C)Cc1c(C(C)(C)C)nc2cc(/C=C/C(=O)NO)ccn12 [Compound 89, 3-(2-tert-Butyl-3-{[ethyl-(3-methyl-butyl)-amino]-methyl}-imidazo[1,2-a]pyridin-7-yl)-N-hydroxy-acrylamide]

GI50 [1, 3]: 2000 nM
IC50 [2]: 240 nM
Structure (SMILES): CCCCCCN(CC)Cc1c(C(C)(C)C)nc2cc(/C=C/C(=O)NO)ccn12 [Compound 90, 3-{2-tert-Butyl-3-[(ethyl-hexyl-amino)-methyl]-imidazo[1,2-a]pyridin-7-yl}-N-hydroxy-acrylamide]

GI50 [1, 3]: 2100 nM
IC50 [2]: 470 nM
Structure (SMILES): CCCC(C)CN(CC)Cc1c(C(C)(C)C)nc2cc(/C=C/C(=O)NO)ccn12 (stereo not shown) [Compound 91, 3-(2-tert-Butyl-3-{[ethyl-(2-methyl-pentyl)-amino]-methyl}-imidazo[1,2-a]pyridin-7-yl)-N-hydroxy-acrylamide]

GI50 [1, 4]: 480 nM
IC50 [2]: 70 nM
Structure (SMILES): CCN(CCC(C)(C)C)Cc1c(C(C)(C)C)nc2cc(/C=C/C(=O)NO)ccn12 [Compound 92, 3-(2-tert-Butyl-3-{[(3,3-dimethyl-butyl)-ethyl-amino]-methyl}-imidazo[1,2a]pyridin-7-yl)-N-hydroxy-acrylamide]

GI50 [1, 3]: 970 nM
IC50 [2]: 190 nM
Structure (SMILES): CCC(CC)CN(CC)Cc1c(C(C)(C)C)nc2cc(/C=C/C(=O)NO)ccn12 [Compound 93, 3-(2-tert-Butyl-3-{[ethyl-(2-ethyl-butyl)-amino]-methyl}-imidazo[1,2-a]pyridin-7-yl)-N-hydroxy-acrylamide]

GI50 [1, 3]: 600 nM
IC50 [2]: 90 nM
Structure (SMILES): CCN(CCCSC)Cc1c(C(C)(C)C)nc2cc(/C=C/C(=O)NO)ccn12 [Compound 95, 3-(2-tert-Butyl-3-{[ethyl-(3-methylsulfanyl-propyl)-amino]-methyl}-imidazo[1,2-a]pyridin-7-yl)-N-hydroxy-acrylamide]

GI50 [1, 3]: 3400 nM
IC50 [2]: 370 nM
Structure (SMILES): CCN(Cc1c(C(C)(C)C)nc2cc(/C=C/C(=O)NO)ccn12)CC1CCOC1 (stereo not shown) [Compound 96, 3-(2-tert-Butyl-3-{[ethyl-(tetrahydro-furan-3-ylmethyl)-amino]-methyl}-imidazo[1,2-a]pyridin-7-yl)-N-hydroxy-acrylamide]

GI50 [1, 3]: 2100 nM
IC50 [2]: 330 nM
Structure (SMILES): CCN(Cc1c(C(C)(C)C)nc2cc(/C=C/C(=O)NO)ccn12)CC1CC1 [Compound 97, 3-{2-tert-Butyl-3-[(cyclopropylmethyl-ethyl-amino)-methyl]-imidazo[1,2-a]pyridin-7-yl}-N-hydroxy-acrylamide]

GI50 [1, 4]: 4600 nM
IC50 [2]: 540 nM
Structure (SMILES): CCCN(CC)Cc1c(C)nc2cc(/C=C/C(=O)NO)ccn12 [Compound 100, 3-{3-[(Ethyl-propyl-amino)-methyl]-2-methyl-imidazo[1,2-a]pyridin-7-yl}-N-hydroxy-acrylamide]

GI50 [1, 3]: 2500 nM
IC50 [2]: 300 nM
Structure (SMILES): CCCN(Cc1c(C(C)(C)C)nc2cc(/C=C/C(=O)NO)ccn12)C(C)C [Compound 102, 3-{2-tert-Butyl-3-[(isopropyl-propyl-amino)-methyl]-imidazo[1,2-a]pyridin-7-yl}-N-hydroxy-acrylamide]

GI50 [1, 3]: 1700 nM
IC50 [2]: 220 nM
Structure (SMILES): CCCCN(C)Cc1c(C(C)(C)C)nc2cc(/C=C/C(=O)NO)ccn12 [Compound 106, 3-{2-tert-Butyl-3-[(butyl-methyl-amino)-methyl]-imidazo[1,2-a]pyridin-7-yl}-N-hydroxy-acrylamide]

GI50 [1, 3]: 2300 nM
IC50 [2]: 410 nM
Structure (SMILES): CCC(CC)CN(C)Cc1c(C(C)(C)C)nc2cc(/C=C/C(=O)NO)ccn12 [Compound 107, 3-(2-tert-Butyl-3-{[(2-ethyl-butyl)-methyl-amino]-methyl}-imidazo[1,2-a]pyridin-7-yl)-N-hydroxy-acrylamide]

GI50 [1, 3]: 900 nM
IC50 [2]: 350 nM
Structure (SMILES): CC(C)CCN(C)Cc1c(C(C)(C)C)nc2cc(/C=C/C(=O)NO)ccn12 [Compound 108, 3-(2-tert-Butyl-3-{[methyl-(3-methyl-butyl)-amino]-methyl}-imidazo[1,2-a]pyridin-7-yl)-N-hydroxy-acrylamide]

GI50 [1, 3]: 730 nM
IC50 [2]: 270 nM
Structure (SMILES): CN(CCC(C)(C)C)Cc1c(C(C)(C)C)nc2cc(/C=C/C(=O)NO)ccn12 [Compound 109, 3-(2-tert-Butyl-3-{[(3,3-dimethyl-butyl)-methyl-amino]-methyl}-imidazo[1,2-a]pyridin-7-yl)-N-hydroxy-acrylamide]

GI50 [1, 3]: 90 nM
IC50 [2]: 20 nM
Structure (SMILES): CCCCc1nc2cc(/C=C/C(=O)NO)ccn2c1CN(CC)CCC(C)C [Compound 114, 3-(2-Butyl-3-{[ethyl-(3-methyl-butyl)-amino]-methyl}-imidazo[1,2-a]pyridin-7-yl)-N-hydroxy-acrylamide]
